According to patent US20110038959A1, “PLANT-ORIGIN DRUG FOR PREVENTING OR IMPROVING HYPERURICEMIA” (priority 2009, published 2011):

Experiments:
[1] = target: T1, buttermilk-derived xanthine oxidase (Bos taurus, UniProt P80457); assay: Xanthine oxidase inhibitory activity assay (xanthine substrate, uric acid detected by absorbance at 295 nm); format: biochemical
T1 construct: an enzyme solution comprising buttermilk-derived xanthine oxidase dissolved at 0.2 units/ml in phosphate buffer; from tissue; host or cells: buttermilk

[2] = test system: potassium oxonate-induced hyperuricemic rat models; assay: Uric acid level in blood of potassium oxonate-induced hyperuricemic rat models; format: in vivo, SD rats
Procedure: 5-week-old male SD rats were purchased from Japan SLC, Inc. and were acclimatized for 1 week. The rats were divided into groups based on body weight (each group consisting of 6 rats), and 5 groups were designated in total; i.e., a control group, a group to which the Artemisia extract is administered, a group to which the chrysanthemum extract is administered, a group to which the guava extract is administered, and a group to which the oregano extract is administered. At the outset, potassium oxonate (Sigma-Aldrich) was administered intraperitoneally to rats at a dose of 250 mg/kg of body weight to prepare potassium oxonate-induced hyperuricemic rat models. […] Blood serum was fractionated from the sampled blood via centrifugation and the uric acid level in the blood was measured. […] Blood serum was fractionated from the sampled blood via centrifugation and the uric acid level in the blood was measured. […] Blood serum was fractionated from the sampled blood via centrifugation and the uric acid level in the blood was measured.

T1 sequence (P80457 whole entry): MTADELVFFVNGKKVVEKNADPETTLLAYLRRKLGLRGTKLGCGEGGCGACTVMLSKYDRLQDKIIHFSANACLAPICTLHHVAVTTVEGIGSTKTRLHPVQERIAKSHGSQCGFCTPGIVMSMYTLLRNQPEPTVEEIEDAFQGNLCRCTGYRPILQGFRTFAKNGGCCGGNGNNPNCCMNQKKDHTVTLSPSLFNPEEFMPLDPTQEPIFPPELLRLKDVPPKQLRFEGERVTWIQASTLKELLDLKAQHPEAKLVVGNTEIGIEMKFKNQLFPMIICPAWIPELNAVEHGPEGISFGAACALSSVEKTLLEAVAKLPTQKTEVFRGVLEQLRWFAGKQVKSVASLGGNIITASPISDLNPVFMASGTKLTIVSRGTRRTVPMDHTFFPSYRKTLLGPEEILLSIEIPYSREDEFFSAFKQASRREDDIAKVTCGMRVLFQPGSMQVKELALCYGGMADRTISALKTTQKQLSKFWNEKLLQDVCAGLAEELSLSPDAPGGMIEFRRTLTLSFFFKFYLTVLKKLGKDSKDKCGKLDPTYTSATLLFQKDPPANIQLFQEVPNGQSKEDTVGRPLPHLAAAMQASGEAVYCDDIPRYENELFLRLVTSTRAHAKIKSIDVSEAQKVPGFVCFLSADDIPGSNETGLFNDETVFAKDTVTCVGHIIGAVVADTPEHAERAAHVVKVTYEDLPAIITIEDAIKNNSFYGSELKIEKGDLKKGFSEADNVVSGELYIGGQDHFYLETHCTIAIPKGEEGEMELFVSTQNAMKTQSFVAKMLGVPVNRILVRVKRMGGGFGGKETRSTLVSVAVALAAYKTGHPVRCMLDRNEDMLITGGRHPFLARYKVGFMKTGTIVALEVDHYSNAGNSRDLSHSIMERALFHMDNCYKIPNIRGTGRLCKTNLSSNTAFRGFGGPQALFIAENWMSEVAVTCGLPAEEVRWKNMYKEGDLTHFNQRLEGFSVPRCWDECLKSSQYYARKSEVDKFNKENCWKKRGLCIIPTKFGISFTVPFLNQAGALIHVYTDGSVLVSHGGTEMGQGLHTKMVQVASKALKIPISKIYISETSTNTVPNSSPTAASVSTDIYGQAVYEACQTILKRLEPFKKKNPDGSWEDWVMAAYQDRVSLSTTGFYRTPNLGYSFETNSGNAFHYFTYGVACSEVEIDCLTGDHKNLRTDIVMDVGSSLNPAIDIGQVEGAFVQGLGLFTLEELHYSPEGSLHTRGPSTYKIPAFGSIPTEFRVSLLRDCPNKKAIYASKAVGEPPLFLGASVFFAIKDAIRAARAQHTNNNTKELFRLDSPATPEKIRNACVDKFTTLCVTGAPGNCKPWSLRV

IC50 ([1]; concentration inhibiting 50% of xanthine oxidase activity, solvent control = 100%): 1.5 µM
SMILES: O=C(/C=C/c1ccc(O)c(O)c1)c1ccc(O)c(O)c1O [Okanin, okanin]
xanthine oxidase activity compared with allopurinol (in words) ([1]; comparison of IC50 values, Table 2): more potent xanthine oxidase activity than allopurinol
Uric acid level in blood ([2]; 50 mg okanin per kg body weight 1 hour after potassium oxonate (250 mg/kg i.p.), blood sampled 2 hours after potassium oxonate, control group 4.92 ± 0.53): 4.10 ± 0.56 mg/dL
uric acid level after administration (in words) ([2]; okanin 50 mg/kg, blood 2 hours after potassium oxonate, versus control group, Table 5): significantly lowered uric acid level
